Test results as given in patent US20080207617A1, “Quinoline Derivatives and Quinazoline Derivatives Inhibiting Autophosphrylation of Flt3 and Medicinal Compositions Containing the Same” (KIRIN BEER KABUSHIKI KAISHA, priority 2002, published 2008).

Tests used:
MV4-11 = experiment: Cell growth inhibitory test MV4-11 (WST-1); type: cell-based, human; conditions: Homo sapiens, MV4-11, 72 h, MV4-11 cells, 3 days culture
Description: Pharmacological Test Example 2
Cell Growth Inhibitory Test
MV4-11 (ATCC number: CRL-9591) as human leukemia cells was seeded in an amount of 3×10^3 using a DMEM medium containing 10% fetal calf serum (purchased from GIBCO) in a 96-well flat bottom plate.
(§1) A solution of a test compound in dimethyl sulfoxide was added to each well and was cultured in a 5% carbon dioxide incubator for 3 days. Three days after the initiation of the culture, 10 μl of a WST-1 solution in Cell Counting Kit (purchased from Wako Pure Chemical Industries, Ltd.) was added to each well for a color reaction. After proper color development, the absorbance was measured with a microplate reader under conditions of measurement wavelength 450 nm and reference wavelength 650 nm. The growth ratio for each well was determined by presuming the absorbance without the addition of the medicament to be 100% growth ratio and the absorbance of the well without seeding of the cells to be 0% growth ratio. The concentration of the test compound was varied on several levels, the cell growth ratio for each case was determined, and the concentration of the test compound necessary for inhibiting 50% of cell growth ratio (IC50) was calculated.

MOLM13 [1] = experiment: Cell growth inhibitory activity using MTT method (MOLM13); type: cell-based, human; conditions: Homo sapiens, MOLM-13, 72 h, MOLM13 cells
Description: Pharmacological Test Example 3
Measurement of Cell Growth Inhibitory Activity Using MTT Method
Human leukemia cell line MOLM13 (subdivided from Hayashibara Biochemical Laboratories, Inc.) was cultured in an RPMI medium containing 10% fetal calf serum (purchased from Asahi Techno Glass Corporation) within a 5% carbon dioxide incubator until the cell density reached 50 to 90% of the maximum cell density. These cells were seeded into wells, containing an RPMI medium containing 10% fetal calf serum, in a 96-well flat bottom plate in an amount of […] per well. The amount of the solution of the medium in each well was brought to 100 μl, and a test compound was added thereto to 500 ng, 100 ng, 20 ng, and 4 ng per ml. After culture within an incubator for 72 hr, 10 μl of a 5 mg/ml MTT (3-(4,5-dimethylthiazol-2-yl)-2,5-diphenyl tetrazolium bromide) solution (purchased from SIGMA) was added to the medium, and a reaction was allowed to proceed for 4 hr. Thereafter, 100 μl of a 0.04 N hydrochloric acid-isopropanol solution was added to completely dissolve the resultant MTT formazan crystal. After the dissolution, absorbance at 550 nm was measured using 620 nm as a reference wavelength with a microplate reader (DIGISCAN) (It is regarded that, in the MTT method, the viable cell count is reflected, and linearity is observed in a cell count per well range of 5×10^5 to 2×10^2 cells). After 72 hr, the absorbance of only the medium free from cells was subtracted from the absorbance of the well without the addition of the test compound to determine a value which was presumed to be 100%. On the other hand, the absorbance with the addition of the compound was expressed in terms of % growth.

MOLM13 [2] = experiment: Cell growth inhibitory activities on cultured human leukemia cells MOLM-13 (WST-1); type: cell-based; conditions: Homo sapiens, MOLM-13, 72 h, 3 days culture
Description: Pharmacological Test Example 4
Cell Growth Inhibitory Activities on Cultured Human Leukemia Cells
as §1, with “Human leukemia cells MOLM13 (subdivided from Hayashibara Biochemical Laboratories, Inc.) were seeded in an amount of 3×10^3 using a DMEM medium containing 10% fetal calf serum (purchased from GIBCO) in a 96-well flat bottom plate. A solution” for “A solution”

| SMILES | IC50 (MV4-11) [nM] | IC50 (MOLM13 [1]) [nM] | IC50 (MOLM13 [2]) [nM] |
| --- | --- | --- | --- |
| COc1cc2nccc(Oc3ccc(NC(=O)NCCC(C)(C)C)cc3OC)c2cc1OC [Compound 5, 1-[4-(6,7-Dimethoxy-quinolin-4-yloxy)-3-methoxy-phenyl]-3-(3,3-dimethyl-butyl)-urea] | 23 | 93.1 | 36 |
| COc1cc2nccc(Oc3ccc(NC(=O)NCCC4CCCCC4)cc3Cl)c2cc1OC [Compound 17, 1-[3-Chloro-4-(6,7-dimethoxy-quinolin-4-yloxy)-phenyl]-3-(2-cyclohexyl-ethyl)-urea] | 17 | 20.5 | 27 |
| COc1cc2c(Oc3ccc(NC(=O)NCCC(C)(C)C)c(Cl)c3)ccnc2cc1OCCCN1CCCC1 [Compound 45, 1-{2-Chloro-4-[6-methoxy-7-(3-pyrrolidin-1-yl-propoxy)-quinolin-4-yloxy]-phenyl}-3-(3,3-dimethyl-butyl)-urea] | 118 | 255 | 140 |
| COc1cc2c(Oc3ccc(NC(=O)NCCC(C)(C)C)c(Cl)c3)ccnc2cc1OCCCN1CCCCC1 [Compound 46, 1-{2-Chloro-4-[6-methoxy-7-(3-piperidin-1-yl-propoxy)-quinolin-4-yloxy]-phenyl}-3-(3,3-dimethyl-butyl)-urea] | 145 | 76.8 | 123 |
| CCN(CC)CCCOc1cc2nccc(Oc3ccc(NC(=O)NCCC(C)(C)C)c(Cl)c3)c2cc1OC [Compound 47, 1-{2-Chloro-4-[7-(3-diethylamino-propoxy)-6-methoxy-quinolin-4-yloxy]-phenyl}-3-(3,3-dimethyl-butyl)-urea] | 51 | 135 | 60 |
| COc1cc2c(Oc3ccc(NC(=O)NC4CC(C)CC(C)(C)C4)cc3F)ccnc2cc1OCCN1CCCCC1 (centres unmarked) [Compound 56, 1-{3-Fluoro-4-[6-methoxy-7-(2-piperidin-1-yl-ethoxy)-quinolin-4-yloxy]-phenyl}-3-(3,3,5-trimethyl-cyclohexyl)-urea] | 14 | 11.3 | 26 |
| COc1cc2c(Oc3ccc(NC(=O)NC4CC(C)CC(C)(C)C4)c(F)c3)ccnc2cc1OCCN1CCCCC1 (centres unmarked) [Compound 57, 1-{2-Fluoro-4-[6-methoxy-7-(2-piperidin-1-yl-ethoxy)-quinolin-4-yloxy]-phenyl}-3-(3,3,5-trimethyl-cyclohexyl)-urea] | 19 | 120 | 29 |
| COc1cc2c(Oc3ccc(NC(=O)NCCC(C)(C)C)c(F)c3)ccnc2cc1OCCN1C(C)CCCC1C (centres unmarked) [Compound 60, 1-(3,3-Dimethyl-butyl)-3-(4-{7-[2-(2,6-dimethyl-piperidin-1-yl)-ethoxy]-6-methoxy-quinolin-4-yloxy}-2-fluoro-phenyl)-urea] | 33 | 108 | 59 |
| COc1cc2c(Oc3ccc(NC(=O)NCCC(C)(C)C)c(F)c3)ccnc2cc1OCCN1C(C)(C)CCCC1(C)C [Compound 61, 1-(3,3-Dimethyl-butyl)-3-(2-fluoro-4-{6-methoxy-7-[2-(2,2,6,6-tetramethyl-piperidin-1-yl)-ethoxy]-quinolin-4-yloxy}-phenyl)-urea] | 57 | – | 138 |
| COc1cc2c(Oc3ccc(NC(=O)NCCC4CCCCCC4)c(F)c3)ccnc2cc1OCCN1CC(C)OC(C)C1 (centres unmarked) [Compound 71, 1-(2-Cycloheptyl-ethyl)-3-(4-{7-[2-(2,6-dimethyl-morpholin-4-yl)-ethoxy]-6-methoxy-quinolin-4-yloxy}-2-fluoro-phenyl)-urea] | 15 | – | 27 |
| COc1cc2c(Oc3ccc(NC(=O)NCCC(C)(C)C)c(Cl)c3)ccnc2cc1OCCN1CCCCCC1 [Compound 74, 1-{4-[7-(2-Azepan-1-yl-ethoxy)-6-methoxy-quinolin-4-yloxy]-2-chloro-phenyl}-3-(3,3-dimethyl-butyl)-urea] | 255 | – | 244 |

Compounds with a lower IC50 (MV4-11), results first:

| IC50 (MV4-11) [nM] | IC50 (MOLM13 [1]) [nM] | IC50 (MOLM13 [2]) [nM] | SMILES |
| --- | --- | --- | --- |
| 4 | 18.8 | 7 | COc1cc2nccc(Oc3ccc(NC(=O)NCCC4CCCCC4)cc3F)c2cc1OC [Compound 16, 1-(2-Cyclohexyl-ethyl)-3-[4-(6,7-dimethoxy-quinolin-4-yloxy)-3-fluoro-phenyl]-urea] |
| 1 | 40.3 | 2 | COc1cc2nccc(Oc3ccc(NC(=O)NCCC4CCCC4)cc3F)c2cc1OC [Compound 18, 1-(2-Cyclopentyl-ethyl)-3-[4-(6,7-dimethoxy-quinolin-4-yloxy)-3-fluoro-phenyl]-urea] |
| 12 | 31.3 | 18 | COc1cc2nccc(Oc3ccc(NC(=O)NC4CCCCC4)cc3)c2cc1OC [Compound 26, 1-Cyclohexyl-3-[4-(6,7-dimethoxy-quinolin-4-yloxy)-phenyl]-urea] |
| 4 | 16.7 | 13 | COc1cc2c(Oc3ccc(NC(=O)NCCC(C)(C)C)cc3)ccnc2cc1OCCN1CC(C)CC(C)C1 (centres unmarked) [Compound 53, 1-(3,3-Dimethyl-butyl)-3-(4-{7-[2-(3,5-dimethyl-piperidin-1-yl)-ethoxy]-6-methoxy-quinolin-4-yloxy}-phenyl)-urea] |
| 3 | 19.7 | 10 | COc1cc2c(Oc3ccc(NC(=O)NCCC(C)(C)C)cc3)ccnc2cc1OCCCN1CC(C)CC(C)C1 (centres unmarked) [Compound 54, 1-(3,3-Dimethyl-butyl)-3-(4-{7-[3-(3,5-dimethyl-piperidin-1-yl)-propoxy]-6-methoxy-quinolin-4-yloxy}-phenyl)-urea] |
| 6 | 36.8 | 25 | COc1cc2c(Oc3ccc(NC(=O)NC4CCCC(C)(C)C4)cc3F)ccnc2cc1OCCN1CCCCC1 (centres unmarked) [Compound 55, 1-(3,3-Dimethyl-cyclohexyl)-3-{3-fluoro-4-[6-methoxy-7-(2-piperidin-1-yl-ethoxy)-quinolin-4-yloxy]-phenyl}-urea] |
| 4 | 51.6 | 17 | COc1cc2c(Oc3ccc(NC(=O)NCCC4CCCCC4)cc3F)ccnc2cc1OCCN1CCCCC1 [Compound 58, 1-(2-Cyclohexyl-ethyl)-3-{3-fluoro-4-[6-methoxy-7-(2-piperidin-1-yl-ethoxy)-quinolin-4-yloxy]-phenyl}-urea] |
| 4 | 26.5 | 7 | COc1cc2c(Oc3ccc(NC(=O)NCCC(C)(C)C)cc3F)ccnc2cc1OCCN1C(C)CCCC1C (centres unmarked) [Compound 62, 1-(3,3-Dimethyl-butyl)-3-(4-{7-[2-(2,6-dimethyl-piperidin-1-yl)-ethoxy]-6-methoxy-quinolin-4-yloxy}-3-fluoro-phenyl)-urea] |
| 10 | 47.8 | 22 | COc1cc2c(Oc3ccc(NC(=O)NCCC(C)(C)CO)c(F)c3)ccnc2cc1OCCN1CCCCC1 [Compound 63, 1-{2-Fluoro-4-[6-methoxy-7-(2-piperidin-1-yl-ethoxy)-quinolin-4-yloxy]-phenyl}-3-(4-hydroxy-3,3-dimethyl-butyl)-urea] |
| < 1 | – | < 1 | COc1cc2c(Oc3ccc(NC(=O)NCCC(C)(C)C)cc3)ccnc2cc1OCCN1CCOCC1 [Compound 66, 1-(3,3-Dimethyl-butyl)-3-{4-[6-methoxy-7-(2-morpholin-4-yl-ethoxy)-quinolin-4-yloxy]-phenyl}-urea] |
